The test system of one data set is K562 cells. As to the kind of experiment: Cell growth inhibitory effect, K562 cells (Cell counting Kit-8, 72 hours).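 For all read-outs here: Read-out is formazan absorbance at 450 nm from WST-8 reduction after a 3 h color reaction, with K562 and U937 cells grown in 96-well plates.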 The note with it: for IC50: Homo sapiens, K562, 72 h, read-out: K562 cells (IC50 value: μM); for Ratio (U937 cells/K562 cells): IC50 U937 cells / IC50 K562 cells. (In general: Tetrazolium dyes change colour on reduction, which living cells bring about.)

For another data set, the system named is U937 cells. As to the kind of experiment: Cell growth inhibitory effect, U937 cells (Cell counting Kit-8, 72 hours). The format is cell-based. The note with it: Homo sapiens, U-937, BCR-ABL negative U937 cells, WST-8 absorbance, continuation of Table 3, read-out: U937 cells (IC50 value: nμM). How it is done:
The plate was incubated in a CO2 incubator overnight. […] The plate was incubated in a CO2 incubator. After 72 hours, 20 μl

The structures appear in SMILES notation.

One may read the IC50 as the concentration that inhibits the measured activity by half. By melting point is commonly meant the temperature, or range, at which the solid turns liquid.

Procedure for K562 cells: of Cell counting Kit-8 (5 mmol/l WST-8, 0.2 mmol/1 1-Methoxy PMS, 150 mmol/l NaCl) (manufactured by Dojindo) was added to each well. After reaction for color development in a CO2 incubator for 3 hours, an absorbance of formazan, generated by reduction of WST-8 was determined at 450 nm using Multi-level counter ARVOsx (manufactured by Wallac).
K562 cells and U937 cells (purchased from American Type Culture Collection) were cultured in a RPMI-1640 medium (manufactured by Sigma) containing 10% (v/v) fetal calf serum (FCS) (manufactures by Sigma) (RPMI-1640/FCS). K562 cells and U937 cells were seeded at a density of 5000 cells/100 μl/well and 4000 cells/100 μl/well in each of 96-hole-plate (manufactured by costar), respectively. The plate was incubated in a CO2 incubator overnight. […] The resulting solution was diluted 500 times in a RPMI-1640/FCS medium and then 100 μl of the diluent was added in a well. The plate was incubated in a CO2 incubator. After 72 hours, 20 μl

Regarding `Cc1ccc(NC(=O)c2ccc(CN3CC[C@H](N4CCCC4)C3)c(C(F)(F)F)c2)cc1Nc1nccc(-c2cncnc2)n1.Cl` [Example 58, (−)-4-[(S)-3-(1-pyrrolidinyl)pyrrolidin-1-ylmethyl]-3-trifluoromethyl-N-{4-methyl-3-[4-(5-pyrimidinyl)pyrimidin-2-ylamino]phenyl}benzamide hydrochloride], the melting point was in the range of 168 to 171 °C. Besides, in the data set with K562 cells, the IC50 stood at 0.0047 µM and the “Ratio (U937 cells/K562 cells)” value came out at 2000. Further, in the data set with U937 cells, the IC50 was 9400 nM.
The corresponding values for `Cc1ccc(NC(=O)c2ccc(CN3C[C@@H](N(C)C)C[C@H]3C)c(C(F)(F)F)c2)cc1Nc1nccc(-c2cncnc2)n1.Cl` [Example 60, (−)-4-[(2R,4S)-4-(dimethylamino)-2-methylpyrrolidin-1-ylmethyl]-3-trifluoromethyl-N-{4-methyl-3-[4-(5-pyrimidinyl)pyrimidin-2-ylamino]phenyl}benzamide hydrochloride] are 188 to 193 °C, 0.005 µM, 800 and 4000 nM.
For `Cc1ccc(NC(=O)c2ccc(CN3CCC[C@H](N)C3)c(C(F)(F)F)c2)cc1Nc1nccc(-c2cncnc2)n1.Cl` [Example 62, (+)-4-((S)-3-aminopiperidinomethyl)-3-trifluoromethyl-N-{4-methyl-3-[4-(5-pyrimidinyl)pyrimidin-2-ylamino]phenyl}benzamide hydrochloride], in that order: 193 to 199 °C, 0.0014 µM, 1143 and 1600 nM.
For `Cc1ccc(NC(=O)c2ccc(CN3CCC[C@H](N(C)C)C3)c(C(F)(F)F)c2)cc1Nc1nccc(-c2cncnc2)n1.Cl` [Example 64, (+)-4-[(S)-3-(dimethylamino)piperidinomethyl]-3-trifluoromethyl-N-{4-methyl-3-[4-(5-pyrimidinyl)pyrimidin-2-ylamino]phenyl}benzamide hydrochloride], in that order: 195 to 198 °C, 0.0043 µM, 860 and 3700 nM.
`Cc1ccc(NC(=O)c2ccc(CN3C[C@@H](C)[C@H](N(C)C)C3)c(C(F)(F)F)c2)cc1Nc1nccc(-c2cncnc2)n1.Cl` [Example 67, (−)-4-[(3S,4R)-3-(dimethylamino)-4-methylpyrrolidin-1-ylmethyl]-3-trifluoromethyl-N-{4-methyl-3-[4-(5-pyrimidinyl)pyrimidin-2-ylamino]phenyl}benzamide hydrochloride]: the melting point was 164 to 174 °C (dec.). Further, in the data set with K562 cells, the IC50 came to 0.0077 µM and the “Ratio (U937 cells/K562 cells)” value was 844. In addition, the IC50 with U937 cells is 6500 nM.
For `Cc1ccc(NC(=O)c2ccc(CN3CCN(C)[C@@H](C)C3)c(C(F)(F)F)c2)cc1Nc1nccc(-c2cncnc2)n1.Cl` [Example 69, (−)-4-((S)-3,4-dimethylpiperazin-1-ylmethyl)-3-trifluoromethyl-N-{4-methyl-3-[4-(5-pyrimidinyl)pyrimidin-2-ylamino]phenyl}benzamide hydrochloride], in that order: 187 to 193 °C, 0.0022 µM, 4545 and 10000 nM.
The corresponding values for `Cc1ccc(NC(=O)c2ccc(CN3CCN(C)[C@H](C)C3)c(C(F)(F)F)c2)cc1Nc1nccc(-c2cncnc2)n1.Cl` [Example 71, (+)-4-((R)-3,4-dimethylpiperazin-1-ylmethyl)-3-trifluoromethyl-N-{4-methyl-3-[4-(5-pyrimidinyl)pyrimidin-2-ylamino]phenyl}benzamide hydrochloride] are 186 to 194 °C, 0.0061 µM, 1098 and 6700 nM.
For `Cc1ccc(NC(=O)c2ccc(CN3CCN(Cc4oc(=O)oc4C)CC3)c(C(F)(F)F)c2)cc1Nc1nccc(-c2cncnc2)n1.Cl` [Example 73, 4-{4-[(5-methyl-2-oxo-1,3-dioxol-4-yl)methyl]piperazin-1-ylmethyl}-3-trifluoromethyl-N-{4-methyl-3-[4-(5-pyrimidinyl)pyrimidin-2-ylamino]phenyl}benzamide hydrochloride], the melting point is 218 to 226 °C (dec.). In the data set on K562 cells, the concentration for half-maximal inhibition (IC50) came to 0.0023 µM and the “Ratio (U937 cells/K562 cells)” value turned out to be 4217. Moreover, in the data set with U937 cells, the IC50 was determined as 9700 nM.
`Cc1ccc(NC(=O)c2ccc(CN3CCN(C)CC3)c(C(F)(F)F)c2)cc1Nc1nc(-c2ccncc2)cs1.Cl` [Example 75, 4-(4-methylpipiperazin-1-ylmethyl)-3-trifluoromethyl-N-{4-methyl-3-[4-(4-pyridyl)thiazol-2-ylamino]phenyl}benzamide hydrochloride]: the melting point was 186 to 188 °C. Further, in the data set on K562 cells, the 50% inhibitory concentration (IC50) was 0.0059 µM and the “Ratio (U937 cells/K562 cells)” value was 458. The concentration for half-maximal inhibition (IC50) with U937 cells was determined as 2700 nM.
In the case of `Cc1ccc(NC(=O)c2ccc(CN3CC(N(C)C)C3)c(C(F)(F)F)c2)cc1Nc1nccc(-c2cncnc2)n1.Cl` [Example 77, 4-[3-(dimethylamino)azetidin-1-ylmethyl]-3-trifluoromethyl-N-{4-methyl-3-[4-(5-pyrimidinyl)pyrimidin-2-ylamino]phenyl}benzamide hydrochloride], the melting point is 159 to 167 °C (dec.). In addition, in the data set with K562 cells, the IC50 was 0.018 µM and the “Ratio (U937 cells/K562 cells)” value is on record as greater than 13699. The IC50 with U937 cells is greater than 100000 nM.
For `Cc1ccc(NC(=O)c2ccc(CN3CC[C@H](CN(C)C)C3)c(C(F)(F)F)c2)cc1Nc1nccc(-c2cncnc2)n1.Cl` [Example 79, 4-[(R)-3-(dimethylaminomethyl)pyrrolidin-1-ylmethyl]-3-trifluoromethyl-N-{4-methyl-3-[4-(5-pyrimidinyl)pyrimidin-2-ylamino]phenyl}benzamide hydrochloride], in that order: 114 to 122 °C (dec.), 0.0059 µM, 4348 and 20000 nM.
Regarding `Cc1ccc(NC(=O)c2ccc(CN3CC[C@@H](CN(C)C)C3)c(C(F)(F)F)c2)cc1Nc1nccc(-c2cncnc2)n1.Cl` [Example 81, 4-[(S)-3-(dimethylaminomethyl)pyrrolidin-1-ylmethyl]-3-trifluoromethyl-N-{4-methyl-3-[4-(5-pyrimidinyl)pyrimidin-2-ylamino]phenyl}benzamide hydrochloride], the melting point is 114 to 122 °C (dec.). In the data set on K562 cells, the IC50 amounted to 0.0047 µM and the “Ratio (U937 cells/K562 cells)” value is listed as greater than 27778. Further, in the data set on U937 cells, the IC50 is greater than 100000 nM.

The values are drawn from patent US7728131B2, “Amide derivative and medicine” (Nippon Shinyaku Co., Ltd., priority 2003, dated 2010).
